Our source for the IC50 values is patent US12234245B2, “Sulfonimidamide compounds as inhibitors of interleukin-1 activity” (Genentech, Inc., priority 2018, dated 2025).

Like-named read-outs stand apart in the source and are kept apart here.

What is called IC50 is the concentration at which inhibition is half-maximal.

Holding throughout (format): cell-based
For test [1], the system named is PBMCs. Put plainly: CTG (CellTiter-Glo) viability assay in PBMCs. The conditions noted are these: LPS and nigericin stimulated. The method in brief:
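Human donor PBMCs were primed with 100 ng/mL LPS for 3 h, pre-treated with compound (0.00017–10 µM) for 30 min in FBS-free medium, then stimulated with 10 µM nigericin for 1.5 h. Viability was read as cellular ATP by CellTiter-Glo, a cytotoxicity counter-screen to IL-1β release.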
On the technique in general: In ATP-based viability assays light output follows the ATP content of the culture.

The subject of test [2] is Kupffer cells. Put plainly: CTG (CellTiter-Glo) viability assay in Kupffer cells. To be noted: human Kupffer cells. The procedure:
(§1) Human Kupffer cells (KCs), specialized liver macrophages residing in […], were obtained by gradient isolation from liver specimens harvested post-mortem by Samsara Sciences. Cells were obtained through an IRB approved donor program by Samsara Sciences and all donors tested negative for bacterial and viral infections.
(§2) Fresh or cryopreserved PMBCs were seeded in V-bottom 96-well plate at 0.5-1×10^5 cells per well and incubated overnight at 37° C. with 5% CO2 in RPMI 1640 medium with GlutaMAX supplement, 4.5 g/L D-glucose, 10% Fetal Bovine Serum (FBS), […] Sodium Pyruvate, 1% Penicillin/Streptomycin, 10 mM HEPES and 0.05 mM of β-mercaptoethanol. Freshly isolated or cryopreserved KCs cells were seeded in flat-bottom 96-well plates at 0.6-1.5×10^5 cells/well and incubated overnight at 37° C. 5% CO2 in RPMI 1640 Medium with GlutaMAX supplement, FBS, 1% Penicillin/Streptomycin and 10 mM HEPES. The following day, the cells were primed with 100 ng/mL of lipopolysaccharides (LPS; Sigma Aldrich) in FBS-free RPMI 1640 for 3 h. After the priming step, the media was removed and PBMCs were pre-incubated with serial concentrations of test compounds (0.00017-10 uM) or vehicle (DMSO) for 30 min in FBS-free media prior to addition of the NLRP3 activator. Cells were then stimulated with 10 uM Nigericin (Sigma Aldrich; InvivoGen) for 1.5 h. Plates were centrifuged at 1,500 rpm for 3 minutes to pellet cells and supernatant was transferred into new plates for subsequent experiments.
Viability of compound treated cells was measured using CellTiter-Glo® assay (Promega, Madison, Wis.) that measures the ATP content of cells which is proportional to the number of live cells within a well. This is a counter-screen to establish that the reduction of IL-1β levels in LPS and nigericin stimulated and compound treated cells is not due to cytotoxicity, but rather through the inhibition of the inflammasome pathway. Compounds inhibiting NRLP3 inflammasome activation ultimately increase the viability of LPS and nigericin stimulated cells by blocking NLRP3 mediated pyroptosis that would otherwise lead to cell lysis.

For test [3], the target named is T1, NLRP3 inflammasome (Homo sapiens, UniProt Q96P20). Description: NLRP3 inflammasome activation assay in PBMCs, IL-1β release (ELISA / HTRF). Set-up: were freshly isolated from human peripheral blood from healthy donors; StemCells Technologies; host or cells: primary human PBMCs, LPS-primed, nigericin-stimulated. To be noted: LPS primed. The method in brief:
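Human PBMCs primed with 100 ng/mL LPS for 3 h, pre-treated with compound for 30 min (0.00017–10 µM, or from 40 µM in 2-fold 20-point series), then stimulated with 10 µM nigericin for 1.5 h at 37 °C. Released IL-1β in supernatant quantified by ELISA or by HTRF (665/620 ratio, overnight RT).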
On the technique in general: An ELISA detects its analyte on a solid surface through an enzyme-linked reagent.

Test [4] addresses T1, NLRP3 inflammasome. Description: NLRP3 inflammasome activation assay in Kupffer cells, IL-1β release. On the set-up: were freshly isolated from human peripheral blood from healthy donors; StemCells Technologies; host or cells: primary human PBMCs, LPS-primed, nigericin-stimulated. To be noted: LPS primed, nigericin.
Excerpt: Some of the following assays were used to determine the inhibitory activity of the compounds on the NLRP3 inflammasome using a common inflammasome activation stimuli—nigericin.
as §1, §2
(§3) For ELISA assays cells were seeded into 96-well plates. Post study, supernatants were removed and the levels of mature IL-1β, IL18 and TNFα (Quantikine ELISA, R&D systems) were measured in cell conditioned media by ELISA according to manufacturer's instructions.

The test system of test [5] is TNFα. Put plainly: TNFα counter-screen in LPS and nigericin stimulated PBMCs. The conditions noted are these: human PBMCs. The procedure: Human peripheral blood mononuclear cells (PBMCs), consisting of lymphocytes (T, B and NK cells), monocytes and dendritic cells, were freshly isolated from human peripheral blood from healthy donors. Cells were obtained through an IRB approved donor program by iXCells Biotechnologies where all the donors were tested for bacterial and viral infections. Cells were purified from peripheral blood using ficoll gradient centrifugation.
as §2, §3
(§4) TNFα levels of LPS and nigericin stimulated cells were measured by HTRF assay (Cisbio, Bedford, MA). […] Measuring TNFalpha production also serves as a technical counter-screen to eliminate compounds that interfere with the HTRF reagents. Thus compounds that inhibit both IL-1β and TNFα levels are triaged for either being non-selective for inflammasome or interfering with the HTRF readout.
For orientation: The purpose of a counterscreen is to sort out artefacts and off-target activity.

Test [6] concerns TNFα. Put plainly: TNFα counter-screen in LPS and nigericin stimulated Kupffer cells. To be noted: human Kupffer cells. The procedure:
as §1, §2, §3, §4

Test [7] concerns the target T1, NLRP3 inflammasome. Description: THP-1 ASC-GFP speck assay. Set-up: host or cells: THP-1 ASC-GFP cells, PMA-differentiated, LPS-primed, nigericin-stimulated. To be noted: THP-1 ASC-GFP cells, PMA differentiated, LPS primed, 10 μM nigericin; read-out: THP1 ASC Speck IC50. The method in brief:
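PMA-differentiated (500 ng/ml, overnight) THP-1 ASC-GFP cells primed with 1 μg/mL LPS for 3 h, preincubated 30 min with compound (top 40 μM, 2-fold, 20 points), then stimulated with 10 μM nigericin for 90 min at 37 °C. After fixation and Hoechst staining, imaging gave the percentage of cells bearing a GFP ASC speck.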

Where [8] appears, read: 10 uM nigericin, read-out: PBMC IL-1 β IC50.
Where [9] appears, read: human PBMCs, read-out: PBMC CTG IC50.
The mark [10] stands for this setting: 10 μM nigericin, read-out: PBMC IL-1β IC50.

T1 sequence (Q96P20 whole entry): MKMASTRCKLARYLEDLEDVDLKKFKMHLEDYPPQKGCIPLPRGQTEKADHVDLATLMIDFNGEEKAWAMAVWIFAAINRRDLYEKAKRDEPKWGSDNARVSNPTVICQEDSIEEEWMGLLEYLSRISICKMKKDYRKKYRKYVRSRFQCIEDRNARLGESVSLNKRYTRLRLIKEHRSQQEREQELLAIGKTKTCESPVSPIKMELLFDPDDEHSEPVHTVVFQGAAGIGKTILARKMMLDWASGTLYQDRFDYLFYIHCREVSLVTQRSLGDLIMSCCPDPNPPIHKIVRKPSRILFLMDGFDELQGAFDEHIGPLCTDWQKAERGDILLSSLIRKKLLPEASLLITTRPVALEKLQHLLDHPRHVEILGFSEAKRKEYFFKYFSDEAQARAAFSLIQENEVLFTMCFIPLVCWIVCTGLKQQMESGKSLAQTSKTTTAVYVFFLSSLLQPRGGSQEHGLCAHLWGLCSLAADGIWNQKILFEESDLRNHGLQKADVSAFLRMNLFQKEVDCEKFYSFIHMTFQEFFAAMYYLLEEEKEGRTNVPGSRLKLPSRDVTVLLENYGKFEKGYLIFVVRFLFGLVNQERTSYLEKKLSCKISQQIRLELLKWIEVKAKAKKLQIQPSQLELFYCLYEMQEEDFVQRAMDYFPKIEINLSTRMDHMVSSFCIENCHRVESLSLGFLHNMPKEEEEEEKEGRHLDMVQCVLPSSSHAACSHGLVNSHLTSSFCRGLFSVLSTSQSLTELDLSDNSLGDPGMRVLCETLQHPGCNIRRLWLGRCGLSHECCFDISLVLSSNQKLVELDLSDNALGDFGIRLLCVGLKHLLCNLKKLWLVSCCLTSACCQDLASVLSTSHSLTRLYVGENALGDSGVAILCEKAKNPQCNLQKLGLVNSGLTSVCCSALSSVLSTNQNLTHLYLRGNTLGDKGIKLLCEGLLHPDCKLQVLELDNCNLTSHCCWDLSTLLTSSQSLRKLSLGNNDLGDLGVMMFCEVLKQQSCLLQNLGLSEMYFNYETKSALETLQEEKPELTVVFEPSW

For the molecule `NS(=O)(=NC(=O)Nc1c2c(cc3c1CCC3)CCC2)c1cnn2c1OCCC2` (centres unmarked), the IC50 was 100 to 1000 nM in test [1] (Homo sapiens, PBMC); 100 to 1000 nM in test [2]; less than 100 nM in test [3] (setting [8]); 100 to 1000 nM in test [4] (read-out: Kupffer IL-β B IC50).
On to `CNC1COc2c(S(N)(=O)=NC(=O)Nc3c4c(cc5c3CCC5)CCC4)cnn2C1` (single isomer, unassigned) [Example 26], for which the IC50 in test [1] (setting [9]) was 2 nM; in test [5] (PBMC) it was more than 10000 nM; in test [2], 21 nM; in test [6], more than 10000 nM; in test [7] it was 9.7 nM; in test [3] (setting [10]) it was 7.6 nM. Besides, the half-maximal inhibitory concentration (IC50) in test [4] (read-out: Kupffer IL-1 β IC50) came out at 20 nM.
As to `NS(=O)(=NC(=O)Nc1c2c(c(F)c3c1CCC3)CCC2)c1cnn2c1OCCCC2` (racemic) [Example 30, N′-((8-fluoro-1,2,3,5,6,7-hexahydro-s-indacen-4-yl)carbamoyl)-5,6,7,8-tetrahydropyrazolo[5,1-b][1,3]oxazepine-3-sulfonimidamide], the IC50 was more than 10000 nM in test [1] (Homo sapiens, PBMC); more than 10000 nM in test [5] (PBMC); 360 nM in test [7]; 67 nM in test [3] (setting [10]).
Consider `COC1COc2c(S(N)(=O)=NC(=O)Nc3c4c(c(F)c5c3CCC5)CCC4)cnn2C1` (single isomer, unassigned) [Example 32], for which the IC50 is 5 nM in test [1] (setting [9]), more than 10000 nM in test [5] (read-out: PBMC TNFα IC50), 45 nM in test [7] and 13 nM in test [3] (setting [10]).
The matching figures for `NS(=O)(=NC(=O)Nc1c2c(cc3c1CCC3)CCC2)c1cnn2c1OCCC2` (single isomer, unassigned) [Example 14]: 1 nM, more than 10000 nM, 1200 nM and 1910 nM.
Turning to `CN(C)C1COc2c(S(N)(=O)=NC(=O)Nc3c4c(cc5c3CCC5)CCC4)cnn2C1` (single isomer, unassigned) [Example 33], the IC50 in test [1] (Homo sapiens, PBMC) was 2 nM; in test [5] (PBMC), more than 10000 nM; in test [7], 1600 nM; in test [3] (setting [10]) it was 890 nM.
With `CO[C@@H]1COc2c(S(=N)(=O)NC(=O)Nc3c4c(cc5c3CCC5)CCC4)cnn2C1` (some centres unmarked) [drawing 668], the 50% inhibitory concentration (IC50) in test [1] (setting [9]) was less than 100 nM; in test [5] (read-out: PBMC TNF α IC50) it was more than 10000 nM; in test [2], less than 100 nM; in test [6] (read-out: Kupffer TNF α IC50), more than 10000 nM; in test [3] (setting [8]) it was less than 100 nM; in test [4] (read-out: Kupffer IL-β B IC50), less than 100 nM.
Consider `CNC1COc2c(S(N)(=O)=NC(=O)Nc3c(C(C)C)cc(F)cc3C(C)C)cnn2C1` (single isomer, unassigned) [Example 27], for which the IC50 in test [1] (Homo sapiens, PBMC) was more than 10000 nM; in test [5] (PBMC), more than 10000 nM; in test [7], 200 nM; in test [3] (setting [10]), 120 nM.
On to `COC1COc2c(S(N)(=O)=NC(=O)Nc3c4c(cc5c3CCC5)CCC4)cnn2C1` (single isomer, unassigned) [Example 20], for which the 50% inhibitory concentration (IC50) in test [1] (setting [9]) was 19 nM; in test [5] (read-out: PBMC TNFα IC50), more than 10000 nM; in test [2], less than 100 nM; in test [6] it was more than 10000 nM; in test [3] (setting [10]), 4 nM; in test [4] (read-out: Kupffer IL-1 β IC50), less than 100 nM.
Take `NS(=O)(=NC(=O)Nc1c2c(cc3c1CCC3)CCC2)c1cnn2c1OCCC2` (racemic) [Example 1, N′-((1,2,3,5,6,7-hexahydro-s-indacen-4-yl)carbamoyl)-6,7-dihydro-5H-pyrazolo[5,1-b][1,3]oxazine-3-sulfonimidamide]: the IC50 in test [1] (Homo sapiens, PBMC) is 300 nM; in test [2], 103 nM; in test [3] (setting [10]) it was 82 nM; in test [4] (read-out: Kupffer IL-1 β IC50), 123 nM.
Turning to `CN[C@@H]1COc2c(S(=N)(=O)NC(=O)Nc3c4c(cc5c3CCC5)CCC4)cnn2C1` (some centres unmarked) [drawing 674], the half-maximal inhibitory concentration (IC50) in test [1] (setting [9]) was less than 100 nM; in test [5] (read-out: PBMC TNF α IC50) it was more than 10000 nM; in test [2] it was less than 100 nM; in test [6] (read-out: Kupffer TNF α IC50), more than 10000 nM; in test [3] (setting [8]), less than 100 nM; in test [4] (read-out: Kupffer IL-β B IC50), less than 100 nM.
